Data reported in ChEMBL document CHEMBL4177534, “Discovery and evaluation of 1H-pyrrolo[2,3-b]pyridine based selective and reversible small molecule BTK inhibitors for the treatment of rheumatoid arthritis” (Bioorg Med Chem Lett, 2017).

What was measured:
[1] = Metabolic stability in mouse liver microsomes assessed as metabolism rate; assay type: ADME, microsome
[2] = target: Tyrosine-protein kinase BTK (Homo sapiens, UniProt Q06187); experiment: Inhibition of recombinant human full length BTK preincubated for 10 mins followed by Tk-biotin peptide substrate addition after 90 mins by TR-FRET assay
[3] = Metabolic stability in rat liver microsomes assessed as metabolism rate; assay type: ADME, microsome
[4] = Metabolic stability in human liver microsomes assessed as metabolism rate; assay type: ADME, microsome
[5] = target: Tyrosine-protein kinase BTK (Mus musculus, UniProt P35991); experiment: Inhibition of C57BL/6J mouse BTK assessed as decrease in anti-mouse IgM antibody stimulated BCR mediated CD69 upregulation preincubated for 30 mins followed by antibody challenge after 18 to 24 hrs by flow cytometry
[6] = Equilibrium aqueous solubility of the compound at pH 4; assay type: physicochemical
[7] = Equilibrium aqueous solubility of the compound at pH 7.4; assay type: physicochemical

Sequence of Tyrosine-protein kinase BTK (Homo sapiens, UniProt Q06187) (Q06187 whole entry): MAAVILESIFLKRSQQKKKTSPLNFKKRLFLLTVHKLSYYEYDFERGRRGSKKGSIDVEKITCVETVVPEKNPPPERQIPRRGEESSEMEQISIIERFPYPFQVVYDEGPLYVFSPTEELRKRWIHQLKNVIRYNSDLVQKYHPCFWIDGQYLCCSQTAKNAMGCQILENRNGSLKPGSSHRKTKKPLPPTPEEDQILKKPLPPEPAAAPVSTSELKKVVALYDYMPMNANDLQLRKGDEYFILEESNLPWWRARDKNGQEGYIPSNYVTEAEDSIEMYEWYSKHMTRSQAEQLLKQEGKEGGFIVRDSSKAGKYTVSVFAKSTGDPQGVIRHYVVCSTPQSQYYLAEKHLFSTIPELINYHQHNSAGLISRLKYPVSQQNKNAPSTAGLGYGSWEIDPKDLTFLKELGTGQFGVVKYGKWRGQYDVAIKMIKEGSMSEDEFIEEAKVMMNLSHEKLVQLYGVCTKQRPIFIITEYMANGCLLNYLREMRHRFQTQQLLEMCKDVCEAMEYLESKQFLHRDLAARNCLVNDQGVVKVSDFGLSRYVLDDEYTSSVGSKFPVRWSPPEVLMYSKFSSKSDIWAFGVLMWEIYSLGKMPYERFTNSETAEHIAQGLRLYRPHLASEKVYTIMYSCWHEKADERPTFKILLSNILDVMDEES
Sequence of Tyrosine-protein kinase BTK (Mus musculus, UniProt P35991) (P35991 whole entry): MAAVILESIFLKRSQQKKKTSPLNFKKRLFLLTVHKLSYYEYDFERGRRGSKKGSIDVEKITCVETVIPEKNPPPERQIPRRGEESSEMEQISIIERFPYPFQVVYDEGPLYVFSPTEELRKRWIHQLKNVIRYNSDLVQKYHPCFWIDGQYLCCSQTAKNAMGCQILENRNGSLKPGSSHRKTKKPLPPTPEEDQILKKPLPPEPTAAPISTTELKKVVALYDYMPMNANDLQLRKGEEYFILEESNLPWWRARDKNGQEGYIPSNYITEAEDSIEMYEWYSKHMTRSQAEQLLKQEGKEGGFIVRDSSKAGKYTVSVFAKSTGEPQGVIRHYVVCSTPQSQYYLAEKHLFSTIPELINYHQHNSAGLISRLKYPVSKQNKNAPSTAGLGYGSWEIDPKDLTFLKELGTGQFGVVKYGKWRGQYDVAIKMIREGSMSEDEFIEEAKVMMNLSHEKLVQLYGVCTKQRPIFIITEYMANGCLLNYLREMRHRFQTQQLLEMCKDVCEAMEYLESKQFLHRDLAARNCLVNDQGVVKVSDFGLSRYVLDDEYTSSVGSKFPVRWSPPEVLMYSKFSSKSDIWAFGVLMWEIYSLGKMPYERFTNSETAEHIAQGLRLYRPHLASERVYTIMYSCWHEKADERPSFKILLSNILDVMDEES

**Q.** For `CS(=O)(=O)N1CC=C(c2cc3c(-c4cccc(N5CCOc6cc(C7CC7)cc(F)c6C5=O)c4CO)ccnc3[nH]2)CC1`, which Drug metabolism [1] is on record?
**A.** 0.09 nmol/min/mg

**Q.** What about the IC50 [2] of the same compound?
**A.** 0.0055 µM

**Q.** What about the Drug metabolism [3] of the same compound?
**A.** 0.05 nmol/min/mg

**Q.** What about the Drug metabolism [4] of the same compound?
**A.** 0.07 nmol/min/mg

**Q.** And the IC50 [5]?
**A.** 0.0177 µM

**Q.** With `O=C1c2ccc(C3CC3)cc2OCCN1c1cccc(-c2ncnc3[nH]c(-c4ccc(CN5CCOCC5)cc4)cc23)c1CO` as the compound, how does the IC50 [2] read?
**A.** 0.0083 µM

**Q.** And the IC50 [5]?
**A.** 0.059 µM

**Q.** For `CC1(O)CCN(Cc2ccc(-c3cc4c(-c5cccc(N6CCOc7cc(C8CC8)ccc7C6=O)c5CO)ncnc4[nH]3)cc2)CC1`, which IC50 [2] is on record?
**A.** 0.0068 µM

**Q.** What about the IC50 [5] of the same compound?
**A.** 0.081 µM

**Q.** For `CN1CCN(Cc2ccc(-c3cc4c(-c5cccc(N6CCOc7cc(C8CC8)cc(F)c7C6=O)c5CO)ccnc4[nH]3)nc2)CC1`, which Drug metabolism [1] is on record?
**A.** 0.06 nmol/min/mg

**Q.** What about the Drug metabolism [3] of the same compound?
**A.** 0.15 nmol/min/mg

**Q.** And the Drug metabolism [4]?
**A.** < 0.04 nmol/min/mg

**Q.** What about the IC50 [5] of the same compound?
**A.** 0.0055 µM

**Q.** What does the source list for `CN1CC(Oc2ccc(-c3cc4c(-c5cccc(N6CCOc7cc(C8CC8)ccc7C6=O)c5CO)ncnc4[nH]3)cc2)C1`?
**A.** IC50 [2]: 0.0051 µM; IC50 [5]: 0.054 µM

**Q.** With `CC1(O)CN(C(=O)N2CC=C(c3cc4c(-c5cccc(N6CCOc7cc(C8CC8)cc(F)c7C6=O)c5CO)ccnc4[nH]3)CC2)C1` as the compound, how does the Drug metabolism [1] read?
**A.** 0.04 nmol/min/mg

**Q.** And the IC50 [2]?
**A.** 0.0011 µM

**Q.** And the Drug metabolism [3]?
**A.** 0.04 nmol/min/mg

**Q.** What about the Drug metabolism [4] of the same compound?
**A.** < 0.04 nmol/min/mg

**Q.** And the IC50 [5]?
**A.** 0.0147 µM

**Q.** For `O=C1c2c(F)cc(C3CC3)cc2OCCN1c1cccc(-c2ccnc3[nH]c(-c4cnn(C5CCN(C6COC6)CC5)c4)cc23)c1CO`, which Drug metabolism [1] is on record?
**A.** 0.1 nmol/min/mg

**Q.** And the Drug metabolism [3]?
**A.** < 0.04 nmol/min/mg

**Q.** And the solubility thermodynamic [6]?
**A.** < 100 µM

**Q.** What about the solubility thermodynamic [7] of the same compound?
**A.** < 20 µM

**Q.** And the Drug metabolism [4]?
**A.** 0.05 nmol/min/mg

**Q.** What about the IC50 [5] of the same compound?
**A.** 0.0083 µM

**Q.** Which IC50 [2] does the source give for `CN1CCC(Oc2ccc(-c3cc4c(-c5cccc(N6CCOc7cc(C8CC8)ccc7C6=O)c5CO)ncnc4[nH]3)cc2)CC1` here?
**A.** 0.0026 µM

**Q.** What about the IC50 [5] of the same compound?
**A.** 0.051 µM

**Q.** For `CN1CCN(c2ccc(-c3cc4c(-c5cccc(N6CCOc7cc(C8CC8)ccc7C6=O)c5CO)ncnc4[nH]3)cc2)CC1`, which IC50 [5] is on record?
**A.** 0.036 µM

**Q.** Which results are given for `CN(C)C(=O)N1CC=C(c2cc3c(-c4cccc(N5CCOc6cc(C7CC7)cc(F)c6C5=O)c4CO)ccnc3[nH]2)CC1`?
**A.** Drug metabolism [1]: 0.05 nmol/min/mg; Drug metabolism [3]: 0.05 nmol/min/mg; Drug metabolism [4]: 0.05 nmol/min/mg; IC50 [5]: 0.0058 µM

**Q.** Which results are given for `CC(C)(O)CN1CC=C(c2cc3c(-c4cccc(N5CCOc6cc(C7CC7)cc(F)c6C5=O)c4CO)ccnc3[nH]2)CC1`?
**A.** Drug metabolism [1]: 0.1 nmol/min/mg; Drug metabolism [3]: 0.09 nmol/min/mg; solubility thermodynamic [6]: < 100 µM; solubility thermodynamic [7]: < 20 µM; Drug metabolism [4]: 0.04 nmol/min/mg; IC50 [5]: 0.075 µM

**Q.** Which Drug metabolism [1] does the source give for `N#CCC(=O)N1CC=C(c2cc3c(-c4cccc(N5CCOc6cc(C7CC7)cc(F)c6C5=O)c4CO)ccnc3[nH]2)CC1` here?
**A.** < 0.04 nmol/min/mg

**Q.** What about the Drug metabolism [3] of the same compound?
**A.** < 0.04 nmol/min/mg

**Q.** What about the Drug metabolism [4] of the same compound?
**A.** 0.07 nmol/min/mg

**Q.** And the IC50 [5]?
**A.** 0.0512 µM

**Q.** With `Cc1c(-c2ncnc3[nH]c(-c4ccc(CN5CCN(C)CC5)cc4)cc23)cccc1N1CCOc2cc(C3CC3)ccc2C1=O` as the compound, how does the IC50 [2] read?
**A.** 0.021 µM

**Q.** With `CN1CCN(Cc2ccc(-c3cc4c(-c5cccc(N6CCOc7cc(C8CC8)ccc7C6=O)c5CO)ncnc4[nH]3)cc2)CC1` as the compound, how does the IC50 [2] read?
**A.** 0.0065 µM

**Q.** What about the IC50 [5] of the same compound?
**A.** 0.048 µM

**Q.** Which IC50 [5] does the source give for `CN1CCC(n2cc(-c3cc4c(-c5cccc(N6CCOc7cc(C8CC8)ccc7C6=O)c5CO)ncnc4[nH]3)cn2)CC1` here?
**A.** 0.032 µM

**Q.** What does the source list for `CN1CCN(Cc2ccc(-c3cc4c(-c5cccc(N6CCOc7cc(C8CC8)ccc7C6=O)c5CO)ccnc4[nH]3)nc2)CC1`?
**A.** IC50 [2]: 0.0054 µM; IC50 [5]: 0.014 µM
